The record followed here is patent US20050256132A1, “Use of ER selective NF-kB inhibitors for the treatment of sepsis” (priority 2003, published 2005).

One data set relates to CK. As to the kind of experiment: Creatine kinase assay in ERα infected HAECT-1 cells (Table 2). Type of data set: cell-based, human. The settings on record: for EC50 / Emax: Homo sapiens; for EC50: HAECT1; for Emax: HAECT1, read-out: CK % Efficacy. As for the experimental part: (§1) T-175 flasks of 100% confluent HAECT-1 cells (immortalized human aortic endothelial cells) were washed with 8 ml of HBSS (HEPES buffered saline solution) and infected for fours hours with 6 ml of a 1:10 dilution of Ad5-wt-hERα virus (an adenovirus transfection vector that mediates CMV promoter driven expression of human ERα) in phenol red free Endothelial Cell Basal medium (Clonetics, San Diego, Calif., Catalog # CC-3129) containing 0.25% bovine serum albumin (EDM-BSA). After four hours, cells were washed with EDM-BSA and incubated overnight in the same medium. Following overnight incubation, cells were washed with EDM-BSA and infected for 2 hours with 6 ml of a 1:10 dilution of Ad5-3x(NFκB).Luc virus (Adenovirus luciferase expression vector driven by three repeats of the MHC NFκb sites 5′ to the thymidine kinase promoter) in EDM-BSA. After two hours, cells were washed and incubated at 34° C. for one hour. Cells were then washed, trypsinized, counted, and resuspended in 95% FBS/5% dimethylsulfoxide at a concentration of […], frozen as 1 or 5 ml aliquots in cryo-vials and stored at −150° C. Control (no ER infection) cells were processed as above without Ad5-wt-hERα virus infection.
(§2) ERα infected HAECT-1 cells or control cells were thawed, diluted 42× in warm EBM-BSA, plated into 96-well plates at 0.1 ml/well and incubated for 4 hours at 34° C. Test compounds were added to the cells at 2× stocks in EBM-BSA containing 2 ng/ml IL-1β Ad6-IL-6(1250 bp).Luc virus and plates were returned to the incubator (34° C.). After […], cells were lysed with 50 μl of Promega Cell Culture Lysis reagenet for about 5 minutes at room temperature on a shaker. After lysing, 15 μl of lysate is transferred to luminometer plates for luciferase determination. Luciferase activity is evaluated using a Perkin Elmer Victor2 1420 multilabel counter. Creatine kinase was determined from the rate of increase in A340 following addition of 100 μl of CK assay reagent (Sigma catalog no. 47-10) to the remainder of the cell lysate.
(§3) For IC50 and EC50 calculations, mean IL-6, luciferase or CK values versus log10 of the compound concentration were fitted to a four parameter logistic equation. The IC50/EC50 value, ‘Hill slope,’ upper and lower limits of the curve were iteratively estimated.

Another data set concerns ER/IL-6. Description: Endothelial Cell ER/IL-6 Assay, IL-6 promoter luciferase (Table 2). Type of data set: cell-based, human. The following applies: for Emax: read-out: IL6 luc % Efficacy. As for the experimental part: as §1, §2, §3
[1] abbreviates: Homo sapiens, HAECT1, ERα infected HAECT-1 cells, IL-1β.
Where [2] appears, read: Homo sapiens, HAECT1, ERα infected HAECT-1 cells, IL-1β, read-out: IL6 luc IC50.
Where [3] appears, read: ERα infected HAECT-1 cells, IL-1β.
Setting [4] is: ERα infected HAECT-1 cells, IL-1β, read-out: IL6 luc IC50.

Each structure is given as a SMILES string. Where two headings read alike, the source gives them in different places.

Usually EC50 stands for the concentration giving half of the maximal effect. A low value points to an effect from little substance. One may read the IC50 as the point on the concentration scale where inhibition reaches its midpoint. `COCCOC[C@](C#N)(C(=O)OC)[C@H](c1ccccc1OC)c1cccc2ccccc12` (relative stereo) [Example 144, Methyl (2S*,3S*)-2-cyano-2-[(2-methoxyethoxy)methyl]-3-(2-methoxyphenyl)-3-(1-naphthyl)propanoate]: a half-maximal effect in the data set with CK (EC50) was put at 19 nM. Moreover, the Emax with ER/IL-6 (setting [1]) came to 103%. The 50% inhibitory concentration (IC50) with ER/IL-6 (setting [2]) was determined as 7 nM.

For the compound `COC[C@](C#N)(C(=O)OC)[C@H](c1cnc2ccccc2c1)c1ccccc1OC` (relative stereo) [Example 165, Methyl (2S*,3R*)-2-cyano-2-(methoxymethyl)-3-(2-methoxyphenyl)-3-quinolin-3-ylpropanoate], the Emax is -22% with CK and 21% in the data set with ER/IL-6 (setting [1]).

Turning to `COCCOC[C@](C#N)(C(=O)OC)[C@H](c1ccccc1OC)c1cccc2ccccc12` [Example 158, Methyl (2S,3S)-2-cyano-2-[(2-methoxyethoxy)methyl]-3-(2-methoxyphenyl)-3-(1-naphthyl)propanoate], in the data set on CK, the 50% effective concentration (EC50) was 55 nM and the Emax is 23%. In addition, the Emax in the data set on ER/IL-6 (setting [1]) came out at 121%. Also, the IC50 with ER/IL-6 (setting [2]) worked out at 4.5 nM.

Turning to `COCC(C#N)(C(=O)OC)C(c1ccccc1OC)c1ccnc2ccccc12` (stereo not drawn) [Example 162, Methyl (RR,SS)-2-cyano-2-(methoxymethyl)-3-(2-methoxyphenyl)-3-quinolin-4-ylpropanoate], the “CK % Efficacy” value with CK is given as −4%. In addition, in the data set with ER/IL-6 (setting [3]), the “IL6 luc % Efficacy” value turned out to be 126%. For the same compound, the IC50 with ER/IL-6 (setting [4]) worked out at 546 nM.

In the case of `COC(=O)[C@@](C)(C#N)[C@H](c1cnc2ccccc2c1)c1ccccc1OC` [Example 163, Methyl (SS,RR)-2-cyano-3-(2-methoxyphenyl)-2-methyl-3-(quinolin-3-yl)propanoate], the “CK % Efficacy” value with CK is on record as −12%. For the same compound, the “IL6 luc % Efficacy” value with ER/IL-6 (setting [3]) was −32%. Also, the half-maximal inhibitory concentration (IC50) in the data set on ER/IL-6 (setting [4]) was found to be 2.95 nM.

Turning to `COCCOCC(C#N)(C(=O)N1CCN(c2ncccn2)CC1)C(c1ccccc1OC)c1cccc2ccccc12` (stereo not drawn) [Example 167, (RR,SS)-2-[(2-Methoxyethoxy)methyl]-3-(2-methoxyphenyl)-3-(1-naphthyl)-2-[(4-pyrimidin-2-ylpiperazin-1-yl)carbonyl]propanenitrile], the “CK % Efficacy” value in the data set with CK was −16%. Further, the “IL6 luc % Efficacy” value with ER/IL-6 (setting [3]) is recorded as 72%. Also, in the data set on ER/IL-6 (setting [4]), the half-inhibitory concentration (IC50) turned out to be 1230 nM.

As for `COCCOC[C@@](C#N)(C(=O)NC(C)(C)C)[C@@H](c1ccccc1OC)c1cccc2ccccc12` [Example 169, (RR,SS)-N-(tert-Butyl)-2-cyano-2-[(2-methoxyethoxy)methyl]-3-(2-methoxyphenyl)-3-(1-naphthyl)propanamide], in the data set on CK, the “CK % Efficacy” value is given as −8%. Further, the “IL6 luc % Efficacy” value with ER/IL-6 (setting [3]) turned out to be 97%. For the same compound, the IC50 in the data set with ER/IL-6 (setting [4]) amounted to 331 nM.

As to `COCCOCC(C#N)(C(=O)N1CC=C(c2c[nH]c3ccccc23)CC1)C(c1ccccc1OC)c1cccc2ccccc12` (stereo not drawn) [Example 172, (RR,SS)-3-[4-(1H-indol-3-yl)-3,6-dihydropyridin-1(2H)-yl]-2-[(2-methoxyethoxy)methyl]-2-[(S*)-(2-methoxyphenyl)(1-naphthyl)methyl]-3-oxopropanenitrile], in the data set with CK, the “CK % Efficacy” value is on record as −13%. Besides, the “IL6 luc % Efficacy” value in the data set on ER/IL-6 (setting [3]) is recorded as 149%. In the data set on ER/IL-6 (setting [4]), the IC50 turned out to be 114 nM.

By melting point is commonly meant the temperature of the solid-liquid transition. Take `COc1ccccc1[C@H](c1cccc2ccccc12)[C@@](C)(C#N)C(=O)N1CCc2c([nH]c3ccccc23)C1` [Example 190, (2S,3S)-3-(2-methoxyphenyl)-2-methyl-3-(1-naphthyl)-2-(1,3,4,9-tetrahydro-2H-beta-carbolin-2-ylcarbonyl)propanenitrile]: the melting point was in the range of 212 to 213 °C. For the same compound, the IC50 in the data set with ER/IL-6 (setting [2]) stood at 113 nM.

`COc1ccccc1[C@H](c1cccc2ccccc12)[C@@](C)(C#N)C(=O)N1CCC(=O)CC1` [Example 191, (2S,3S)-3-(2-methoxyphenyl)-2-methyl-3-(1-naphthyl)-2-[(4-oxopiperidin-1-yl)carbonyl]propanenitrile]: the melting point fell in the range of 209 to 210 °C. Further, the half-maximal inhibitory concentration (IC50) in the data set on ER/IL-6 (Homo sapiens, HAECT1, read-out: IL6 luc IC50) was determined as 586 nM.

As to `CCC(=O)C1(c2ccccc2)CCN(C(=O)[C@](C)(C#N)[C@H](c2ccccc2OC)c2cccc3ccccc23)CC1` [Example 194, (2S,3S)-3-(2-methoxyphenyl)-2-methyl-3-(1-naphthyl)-2-[(4-phenyl-4-propionylpiperidin-1-yl)carbonyl]propanenitrile], the melting point fell in the range of 126 to 128 °C. Moreover, in the data set with ER/IL-6 (setting [1]), the Emax was 150%. For the same compound, the IC50 in the data set on ER/IL-6 (setting [2]) was found to be 132 nM.

For the compound `COc1ccccc1[C@H](c1cccc2ccccc12)[C@@](C)(C#N)C(=O)N1CCC(C(C)=O)(c2ccccc2)CC1` [Example 195, (2S)-3-(4-acetyl-4-phenylpiperidin-1-yl)-2-[(S)-(2-methoxyphenyl)(1-naphthyl)methyl]-2-methyl-3-oxopropanenitrile], the melting point lay in the range of 134 to 135 °C. The Emax with ER/IL-6 (setting [1]) is 74%. In the data set with ER/IL-6 (setting [2]), the IC50 worked out at 710 nM.

For the compound `COc1ccccc1[C@H](c1cccc2ccccc12)[C@@](C)(C#N)C(=O)N1CCN(C2CCCCC2)CC1` [Example 196, (2S)-3-(4-cyclohexylpiperazin-1-yl)-2-[(s)-(2-methoxyphenyl)(1-naphthyl)methyl]-2-methyl-3-oxopropanenitrile], the melting point lay in the range of 137 to 138 °C. The Emax with ER/IL-6 (setting [1]) turned out to be 142%. Also, the concentration for half-maximal inhibition (IC50) in the data set with ER/IL-6 (setting [2]) came out at 70 nM.

For `COCCN1CCN(C(=O)[C@](C)(C#N)[C@H](c2ccccc2OC)c2cccc3ccccc23)CC1` [Example 197, (2S)-3-[4-(2-methoxyethyl)piperazin-1-yl]-2-[(S)-(2-methoxyphenyl)(1-naphthyl)methyl]-2-methyl-3-oxopropanenitrile], the melting point worked out at 144 °C. In addition, the Emax in the data set with ER/IL-6 (setting [1]) was 46%. For the same compound, the IC50 in the data set with ER/IL-6 (setting [2]) was determined as 39 nM.

The compound `COc1ccccc1[C@H](c1cccc2ccccc12)[C@@](C)(C#N)C(=O)N1CCN(CC(=O)N2CCCC2)CC1` [Example 201, (2S,3S)-3-(2-methoxyphenyl)-2-methyl-3-(1-naphthyl)-2-{[4-(2-oxo-2-pyrrolidin-1-ylethyl)piperazin-1-yl]carbonyl}propanenitrile] gave a melting point of 203 °C. Besides, the Emax in the data set on ER/IL-6 (setting [1]) was 45%. In the data set with ER/IL-6 (setting [2]), the IC50 was 1090 nM.

`COc1ccccc1[C@H](c1cccc2ccccc12)[C@@](C)(C#N)C(=O)N1CCN(CCCN(C)C)CC1` [Example 202, (2S)-3-{4-[3-(dimethylamino)propyl]piperazin-1-yl}-2-[(S)-(2-methoxyphenyl)(1-naphthyl)methyl]-2-methyl-3-oxopropanenitrile] gave a melting point of 78 to 80 °C. In the data set on ER/IL-6 (setting [1]), the Emax was 43%.

Turning to `COCCN1CCN(C(=O)C(C#N)(COC)C(c2ccccc2OC)c2cccc3ccccc23)CC1` (stereo not drawn) [Example 206, 3-[4-(2-methoxyethyl)piperazin-1-yl]-2-(methoxymethyl)-2-[(2-methoxyphenyl)(1-naphthyl)methyl]-3-oxopropanenitrile], the melting point was in the range of 156 to 158 °C. Besides, the Emax in the data set with ER/IL-6 (setting [1]) came out at 83%. The IC50 in the data set on ER/IL-6 (setting [2]) is 345 nM.

`COc1ccccc1C(c1cccc2ccccc12)C(C#N)(COCc1ccccc1)C(=O)N1CCN(CCN2CCOCC2)CC1` (stereo not drawn) [Example 208, 2-[(benzyloxy)methyl]-3-(2-methoxyphenyl)-2-{[4-(2-morpholin-4-ylethyl)piperazin-1-yl]carbonyl}-3-(1-naphthyl)propanenitrile] showed a melting point of 162 °C. Moreover, the Emax in the data set on ER/IL-6 (setting [1]) amounted to 50%. In addition, in the data set on ER/IL-6 (setting [2]), the IC50 amounted to 13 nM.

As to `COC[C@](C#N)(C(=O)N1CCN(c2ncccn2)CC1)[C@H](c1ccccc1OC)c1cccc2ccccc12` [Example 210, (2S,3S)-2-(methoxymethyl)-3-(2-methoxyphenyl)-3-(1-naphthyl)-2-[(4-pyrimidin-2-ylpiperazin-1-yl)carbonyl]propanenitrile], the melting point stood at 140 °C. Moreover, the Emax in the data set on ER/IL-6 (setting [1]) came out at 132%. In addition, in the data set with ER/IL-6 (setting [2]), the IC50 is 16 nM.

`COC[C@@](C#N)(C(=O)N1CCN(c2ncccn2)CC1)[C@@H](c1ccccc1OC)c1cccc2ccccc12` [Example 211, (2R,3R)-2-(methoxymethyl)-3-(2-methoxyphenyl)-3-(1-naphthyl)-2-[(4-pyrimidin-2-ylpiperazin-1-yl)carbonyl]propanenitrile] displayed a melting point of 136 to 137 °C. In addition, in the data set with ER/IL-6 (setting [1]), the Emax is 78%. Also, the IC50 with ER/IL-6 (setting [2]) is 268 nM.
